Reference: patent publication US10251408B2, “Catechin function enhancement method” (KYUSHU UNIVERSITY, NATIONAL UNIVERSITY CORPORATION, priority 2014, dated 2019)

Legend:
[1] = test system: Human multiple myeloma cell line U266; experiment: Cancer cell death induction, viable cells by trypan blue assay (96-well plate, FIG. 9); type: cell-based; conditions: 96 hours, in combination with EGCG, EGCG 3″Me or green tea extract
Procedure: (§1) Human multiple myeloma cell line U266 was subcultured and maintained in RPMI 1640 medium supplemented with 10% FCS under conditions of 37° C. and water vapor-saturated 5% CO2. The cells were maintained in the logarithmic growth phase. The RPMI 1640 medium used for culture was prepared as follows: per liter of ultrapure water, RPMI 1640 medium (10.4 g), HEPES (2.38 g), injectable penicillin G potassium (100,000 units), streptomycin sulfate injectable (100 mg) and NaHCO3 (2.0 g) were suspended and then filter-sterilized.
The lemon peel extract used in the experiment was prepared as follows. Peels (100 g) were collected with a grater from 6 lemons and 100% EtOH (100 mL) was added thereto, followed by mashing with a mortar. The mashed mixture was further strained through gauze to remove fibers and then filtered by gravity using a #1 paper filter and a funnel to remove precipitates, followed by centrifugation at 12000×g to collect the supernatant. The resulting ethanol extract of lemon was evaporated with an evaporator to volatilize the solvent, thereby obtaining an ethanol-extracted lemon fraction. This ethanol-extracted lemon fraction was dissolved again in DMSO to give a lemon extract. […] After culture, viable cells were counted by trypan blue assay.
To evaluate the effect of combined use of EGCG or a structural analog thereof or an EGCG-containing naturally occurring product and eriodictyol or a structural analog thereof or an eriodictyol-containing naturally occurring product, human multiple myeloma cell line U266 was adjusted to 5×10^4 cells/mL and seeded in a 96-well plate, and then cultured for 96 hours in the presence of EGCG and eriodictyol added at a final concentration of 5 μM each. After culture for 96 hours, viable cells were counted by trypan blue assay.

[2] = test system: Human multiple myeloma cell line U266; experiment: Anticancer effect, viable cells by trypan blue assay (24-well plates, FIG. 14-19); type: cell-based; conditions: 5 μM each, 96 hours; for enhancement of the anticancer effect (viable cells) of EGCG: combined with EGCG; for enhancement of the anticancer effect (viable cells) of EGCG 3″Me: combined with EGCG 3″Me; for enhancement of the anticancer effect (viable cells) of GCG: combined with GCG (gallocatechin gallate)
Procedure: as §1, with “fetal bovine serum (FCS)” for “FCS”, “filter-sterilized. Then, the RPMI 1640 medium was supplemented with FCS and used for cell culture. Per liter of ultrapure water, NaCl (8.0 g), KCl (0.2 g), Na2HPO4 (1.15 g) and KH2PO4 (0.2 g) were dissolved to prepare PBS, which was then sterilized in an autoclave.” for “filter-sterilized.”
Eriodictyol and structural analogs thereof, i.e., naringenin and hesperetin, as well as glycosides thereof, i.e., eriocitrin, naringin and hesperidin were each adjusted to 5 mM with 100% dimethyl sulfoxide (DMSO) and stored at −30° C. EGCG and (−)-gallocatechin gallate (GCG) were each adjusted to 5 mM with ultrapure water and stored at −30° C. EGCG 3″Me was adjusted to 5 mM with 10% DMSO dH2O and stored at −30° C.
U266 adjusted to 5×10^4 cells/mL in RPMI 1640 containing 1% FCS, SOD (5 U/mL) and catalase (200 U/mL) was seeded in 24-well plates and cultured for 96 hours in the presence of EGCG and analogs thereof or eriodictyol and analogs thereof added at a final concentration of 5 μM each. After culture, viable cells were counted by trypan blue assay.
For statistical processing of the experimental results, Student's test was used and P<0.05 was considered statistically significant in comparison with control data in the vehicle group.

[3] = test system: tail suspension test-induced disuse amyotrophy in mice; experiment: Tail suspension test-induced disuse amyotrophy (quadriceps femoris weight); type: in vivo, mouse; conditions: C57BL/6J mice; 5 mg/kg intragastric once a day; tail suspension for 10 days from day 7; FIG. 4
Procedure: Male C57BL/6J mice at 12 weeks of age were divided into 5 groups such that the average body weight was equal in all groups, i.e., a GR (ground) group, a TS (tail suspension) group, an EGCG group, an eriodictyol group, and an EGCG+eriodictyol group. From the beginning of grouping, the GR and TS groups received physiological saline, the EGCG group received EGCG and the eriodictyol group received eriodictyol (5 mg/kg) by intragastric administration, while the EGCG+eriodictyol group received EGCG and eriodictyol (5 mg/kg) by intragastric administration through a sonde. For 7 days from the beginning of grouping, all the groups were kept under normal conditions, and the TS, EGCG, eriodictyol, and EGCG+eriodictyol groups were then subjected to a tail suspension test. After the tail suspension test for 10 days (at 17 days after initiation of the experiment), all the mice were sacrificed by abdominal aortic puncture under isoflurane anesthesia, and the quadriceps femoris was excised from each mouse and measured for its weight. Each sample was administered daily throughout the experimental period. […] At 10 days after starting the tail suspension test, the mice were sacrificed by abdominal aortic puncture under isoflurane anesthesia, and the quadriceps femoris was excised from each mouse and measured for its weight.

Compound | enhancement of the anticancer effect (viable cells) of EGCG, EGCG 3″Me or a green tea extract [1] | enhancement of the anticancer effect (viable cells) of EGCG [2] | enhancement of the anticancer effect (viable cells) of EGCG 3″Me [2] | enhancement of the anticancer effect (viable cells) of GCG [2] | effect on amyotrophy (quadriceps femoris weight) [3]
O=C1C[C@@H](c2ccc(O)cc2)Oc2cc(O)cc(O)c21 [naringenin] | remarkably enhance the anticancer effect | remarkably enhance the anticancer effect | remarkably enhance the anticancer effect | remarkably enhance the anticancer effect | 
C[C@@H]1O[C@@H](OC[C@H]2O[C@@H](Oc3cc(O)c4c(c3)O[C@H](c3ccc(O)c(O)c3)CC4=O)[C@H](O)[C@@H](O)[C@@H]2O)[C@H](O)[C@H](O)[C@H]1O [eriocitrin] |  | remarkably enhance the anticancer effect | remarkably enhance the anticancer effect | remarkably enhance the anticancer effect | 
COc1ccc([C@@H]2CC(=O)c3c(O)cc(O)cc3O2)cc1O [hesperetin] | remarkably enhance the anticancer effect | remarkably enhance the anticancer effect | remarkably enhance the anticancer effect | remarkably enhance the anticancer effect | 
C[C@@H]1O[C@@H](O[C@H]2[C@H](Oc3cc(O)c4c(c3)O[C@H](c3ccc(O)cc3)CC4=O)O[C@H](CO)[C@@H](O)[C@@H]2O)[C@H](O)[C@H](O)[C@H]1O [naringin] |  | remarkably enhance the anticancer effect |  |  | 
COc1ccc([C@@H]2CC(=O)c3c(O)cc(O[C@@H]4O[C@H](CO[C@@H]5O[C@@H](C)[C@H](O)[C@@H](O)[C@H]5O)[C@@H](O)[C@H](O)[C@H]4O)cc3O2)cc1O [hesperidin] |  | remarkably enhance the anticancer effect | remarkably enhance the anticancer effect | remarkably enhance the anticancer effect | 
O=C(O[C@@H]1Cc2c(O)cc(O)cc2O[C@@H]1c1cc(O)c(O)c(O)c1)c1cc(O)c(O)c(O)c1 [EGCG, epigallocatechin gallate] |  |  |  |  | no effect on amyotrophy
